From US20250099420A1, “SMALL MOLECULE MODULATORS OF GPR139 COMPLEX” (University of Florida Research Foundation, Incorporated, priority 2022, published 2025)
Where two headings read alike, the source gives them in different places.

Columns and labels:
parental HEK cells = assay: HEK parental Agonist Counterscreen Assay (non-transfected cells); type: cell-based; conditions: for Averaged Max % Response (±St. Dev.): activity relative to known control
Source text: The high control for the agonist counterscreen was Forskolin not acetylcholine.

GPR139 = molecular target: T1, GPR139 (Homo sapiens, UniProt Q6DWJ6); assay: GPR139 Agonist titration / agonist counterscreen assay (calcium detection, HEK-GPR139 cells); type: cell-based; set-up: expressed in transfected cells; host or cells: HEK Aequorin cells, Maxcyte transient transfection; conditions: GPR139 Agonist Activity; for EC50: read-out: EC50; for Averaged Max % Response (±St. Dev.): activity relative to known control
T1 sequence (Q6DWJ6 1-353): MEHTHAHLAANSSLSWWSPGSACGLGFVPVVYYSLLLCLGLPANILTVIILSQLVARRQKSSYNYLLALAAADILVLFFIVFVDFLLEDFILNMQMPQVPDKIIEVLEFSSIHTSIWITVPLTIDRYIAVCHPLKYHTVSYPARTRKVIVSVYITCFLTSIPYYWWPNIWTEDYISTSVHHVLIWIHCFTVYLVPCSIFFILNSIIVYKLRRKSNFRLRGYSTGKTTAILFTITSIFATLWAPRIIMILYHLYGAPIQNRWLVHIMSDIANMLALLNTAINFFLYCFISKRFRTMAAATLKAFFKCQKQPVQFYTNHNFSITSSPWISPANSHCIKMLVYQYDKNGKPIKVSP
Method: GPR activity was assessed using a calcium detection assay. […] Negative control samples were treated with DMSO. […] Intracellular calcium was measured using Calcium 5.

[1] = Homo sapiens, HEK293, HEK Agonist Activity section of Table 4 (parental HEK counterscreen)
[2] = values printed in E-notation without unit
[3] = Homo sapiens, HEK293, HEK Agonist Activity, parental non-transfected HEK cells
[4] = HEK Agonist Activity section of Table 4 (parental HEK counterscreen)
[5] = HEK Agonist Activity, parental non-transfected HEK cells

| Lipophilic Efficiency (logD) (parental HEK cells; HEK Agonist Activity section) | Lipophilic Efficiency (logP) (parental HEK cells; HEK Agonist Activity section) | Efficiency Ligand (GPR139) | Hill Slope (GPR139) | Lipophilic Efficiency (logD) (GPR139) | Lipophilic Efficiency (logP) (GPR139) | EC50 (GPR139; HEK-GPR139 cells) [nM] | Averaged Max % Response (±St. Dev.) (GPR139) [%] | Lipophilic Efficiency (logD) (GPR139; based on logD) | Lipophilic Efficiency (logP) (GPR139; based on logP) | Hill Slope (GPR139; fitted dose-response curve) | Efficiency Ligand (GPR139; ligand efficiency) | EC50 (GPR139; [2]) [nM] | Lipophilic Efficiency (logD) (parental HEK cells; HEK Agonist Activity) | Lipophilic Efficiency (logP) (parental HEK cells; HEK Agonist Activity) | Structure (SMILES) | Averaged Max % Response (±St. Dev.) (parental HEK cells; HEK Agonist Activity section) [%] | EC50 (parental HEK cells; [1]) [nM] | Averaged Max % Response (±St. Dev.) (parental HEK cells; HEK Agonist Activity) [%] | other results |
| --- | --- | --- | --- | --- | --- | --- | --- | --- | --- | --- | --- | --- | --- | --- | --- | --- | --- | --- | --- |
| 1.52 | 1.52 | 0.31 | 0.51 | 2.73 | 2.73 | 863 | 96.78 ± 14.90 |  |  |  |  |  |  |  | CC(CCc1ccccc1)NC(=O)Cn1ncc2c1-c1ccccc1OC2 (centres unmarked) [SR-01000134913] | −5.82 ± 11.13 | > 14100 |  |  |
| 2.40 | 2.40 |  |  |  |  |  | 103.63 ± 9.70 | 4.25 | 4.25 | 0.89 | 0.32 | 205 |  |  | O=C(CN1C(=O)NC2(CCc3ccccc3C2)C1=O)N1CCc2ccccc2C1 (centres unmarked) [SR-01000062726] | −12.60 ± 9.55 | > 14500 |  |  |
|  |  |  |  |  |  |  | 136.99 ± 21.58 | 5.09 | 5.09 | 0.44 | 0.52 | 5.7 | 1.70 | 1.70 | Cc1ccc(CCNC(=O)Cn2cc3c(n2)CCCC3)cc1 [SR-01000137723] |  |  | −4.03 ± 1.74 | EC50 (parental HEK cells; [3]): > 14100 nM |
| 2.79 | 2.79 | 0.30 | 1.07 | 3.46 | 3.46 | 3000 | 68.12 ± 14.87 |  |  |  |  |  |  |  | O=C(CCS(=O)(=O)c1cccc2nonc12)NCCc1ccc(Cl)cc1 [SR-01000119565] | 5.54 ± 5.16 |  |  | EC50 (parental HEK cells; [4]): > 14100 nM |
| 1.56 | 1.56 | 0.40 | 0.94 | 3.26 | 3.26 | 281 | 86.84 ± 8.43 |  |  |  |  |  |  |  | Cc1cccc(CNC(=O)Nc2ccc(-c3cn[nH]c3)cc2)c1.O=C(O)C(F)(F)F [SR-00000005301] | 8.29 ± 4.70 |  |  | EC50 (parental HEK cells; [4]): > 14100 nM |
| 1.23 | 1.23 |  |  |  |  |  | 95.58 ± 3.98 | 3.16 | 3.16 | 1.02 | 0.36 | 68.1 |  |  | COCC(=O)Oc1c(Sc2c(F)c(F)c(F)c(F)c2F)c(C)nn1C(C)(C)C [SR-01000906953] | 192.43 ± 25.16 |  |  | Hill Slope (parental HEK cells; HEK Agonist Activity section): 9.35; EC50 (parental HEK cells; [4]): 5700 nM |
|  |  |  |  |  |  |  | 117.24 ± 4.32 | 3.74 | 3.74 | 0.61 | 0.36 | 40.5 | 1.21 | 1.21 | CC1(c2ccc3ccccc3c2)NC(=O)N(CC(=O)Nc2ccccc2Cl)C1=O (centres unmarked) [SR-01000066950] |  |  | 2.95 ± 8.11 | EC50 (parental HEK cells; [3]): > 13800 nM |
| 2.37 | 2.37 |  |  |  |  |  | 113.53 ± 12.66 | 4.28 | 4.28 | 1.14 | 0.34 |  |  |  | CCCCN(C)C(=O)CCC(=O)NNC1Cc2ccccc2C2=CC(C)=CC21 (centres unmarked) [SR-01000131962] | −5.39 ± 5.10 | > 14100 |  |  |
| 2.04 | 2.04 |  |  |  |  |  | 118.50 ± 16.12 | 4.23 | 4.23 | 0.84 | 0.43 | 98.9 |  |  | O=C(CCc1nc2ccccc2s1)NNC(=O)C1CCCCC1 [SR-01000068916] | 19.72 ± 5.30 | > 15300 |  |  |
| 1.37 | 1.37 |  |  |  |  |  | 88.62 ± 11.28 | 3.55 | 3.54 | 0.94 | 0.39 | 98.6 |  |  | O=C(CCCOc1ccc(Cl)cc1Cl)NNC(=O)Cc1ccccc1 [SR-01000067982] | 10.05 ± 3.22 | > 14800 |  |  |
|  |  |  |  |  |  |  | 114.67 ± 3.82 | 4.37 | 4.37 | 1.18 | 0.49 | 3.7 | 0.77 | 0.77 | O=C(CSc1ccc2ccccc2c1)NNC(=O)c1ccc(Br)s1 [SR-01000069345] |  |  | 15.34 ± 2.20 | EC50 (parental HEK cells; [5]): > 14700 nM |
| 2.04 | 2.04 | 0.35 | 0.94 | 3.68 | 3.67 | 339 | 93.05 ± 4.55 |  |  |  |  |  |  |  | O=C(CCc1nc2ccccc2s1)NNC(=O)CSc1ccccc1F [SR-01000069574] | 7.10 ± 4.83 | > 14500 |  |  |
| 1.13 | 1.13 |  |  |  |  |  | 139.09 ± 25.80 | 3.02 | 3.02 | 0.40 | 0.36 | 181 |  |  | CC(C)c1ccc(NC(=O)Cn2ncc3c2-c2ccccc2OC3)cc1 [SR-01000098920] | 10.87 ± 9.19 |  |  | EC50 (parental HEK cells; [4]): > 14100 nM |
| 3.65 | 2.98 | 0.34 | 0.72 | 4.84 | 4.17 | 914 | 72.99 ± 14.39 |  |  |  |  |  |  |  | Cl.Cl.Nc1[nH]ncc1-c1ccc(NC(=O)[C@H](N)Cc2cccc(F)c2)cc1 [SR-00000004378] | −19.97 ± 10.80 |  |  | EC50 (parental HEK cells; [4]): > 14100 nM |
|  |  |  |  |  |  |  | 87.90 ± 18.60 | 4.85 | 4.85 | 0.93 | 0.36 | 17.2 | 1.93 | 1.93 | COc1ccccc1CC1(C)NC(=O)N(CC(=O)NC(C)c2cccc(Cl)c2)C1=O (centres unmarked) [SR-01000069564] |  |  | −3.54 ± 8.88 | EC50 (parental HEK cells; [5]): > 14400 nM |
|  |  |  |  |  |  |  | 146.26 ± 17.42 | 4.56 | 4.52 | 0.21 | 0.40 |  | 1.68 | 1.64 | COc1cc(OC)cc(C(=O)NNC(=O)C(C)Oc2ccc(Cl)cc2Cl)c1 (centres unmarked) [SR-01000358013] |  |  | 22.28 ± 14.14 | EC50 (parental HEK cells; [3]): > 14100 nM |
|  |  |  |  |  |  |  | 115.59 ± 14.29 | 4.05 | 4.05 | 0.81 | 0.39 | 33.9 | 1.43 | 1.43 | COc1ccc(NC(=O)NCCOc2cccc3ccccc23)cc1OC [SR-01000223498] |  |  | 15.10 ± 2.28 | EC50 (parental HEK cells; [3]): > 14100 nM |

| Structure (SMILES) | Lipophilic Efficiency (logD) (parental HEK cells; HEK Agonist Activity section) | Lipophilic Efficiency (logP) (parental HEK cells; HEK Agonist Activity section) | Efficiency Ligand (GPR139) | Hill Slope (GPR139) | Lipophilic Efficiency (logD) (GPR139) | Lipophilic Efficiency (logP) (GPR139) | EC50 (GPR139; HEK-GPR139 cells) [nM] | Averaged Max % Response (±St. Dev.) (GPR139) [%] | Lipophilic Efficiency (logD) (GPR139; based on logD) | Lipophilic Efficiency (logP) (GPR139; based on logP) | Hill Slope (GPR139; fitted dose-response curve) | Efficiency Ligand (GPR139; ligand efficiency) | EC50 (GPR139; [2]) [nM] | Lipophilic Efficiency (logD) (parental HEK cells; HEK Agonist Activity) | Lipophilic Efficiency (logP) (parental HEK cells; HEK Agonist Activity) | Averaged Max % Response (±St. Dev.) (parental HEK cells; HEK Agonist Activity section) [%] | EC50 (parental HEK cells; [1]) [nM] | Averaged Max % Response (±St. Dev.) (parental HEK cells; HEK Agonist Activity) [%] | other results |
| --- | --- | --- | --- | --- | --- | --- | --- | --- | --- | --- | --- | --- | --- | --- | --- | --- | --- | --- | --- |
| Cc1c(C=O)c2ccccc2n1CC(=O)NCc1ccccc1 [SR-01000269911] | 2.02 | 2.02 | 0.37 | 1.69 | 3.22 | 3.22 | 898 | 88.11 ± 5.39 |  |  |  |  |  |  |  | 5.27 ± 9.17 | > 14100 |  |  |
